Test results reported in patent publication US8541588B2, “Sulfonamide derivatives” (Pfizer Limited, priority 2009, dated 2013).

molecular target: T1, Nav1.7 (or SCN9A) channel; HEK cells stably transfected with hSCN9A (Homo sapiens, UniProt Q15858); experiment: Nav1.7 block, PatchXpress 7000 automated whole-cell voltage clamp, estimated IC50 (EIC50); type: cell-based; conditions: PatchXpress platform; hSCN9A HEK cells held at V1/2 of inactivation; estimated IC50
T1 construct: expressed in transfected cells
T1 sequence (Q15858 whole entry): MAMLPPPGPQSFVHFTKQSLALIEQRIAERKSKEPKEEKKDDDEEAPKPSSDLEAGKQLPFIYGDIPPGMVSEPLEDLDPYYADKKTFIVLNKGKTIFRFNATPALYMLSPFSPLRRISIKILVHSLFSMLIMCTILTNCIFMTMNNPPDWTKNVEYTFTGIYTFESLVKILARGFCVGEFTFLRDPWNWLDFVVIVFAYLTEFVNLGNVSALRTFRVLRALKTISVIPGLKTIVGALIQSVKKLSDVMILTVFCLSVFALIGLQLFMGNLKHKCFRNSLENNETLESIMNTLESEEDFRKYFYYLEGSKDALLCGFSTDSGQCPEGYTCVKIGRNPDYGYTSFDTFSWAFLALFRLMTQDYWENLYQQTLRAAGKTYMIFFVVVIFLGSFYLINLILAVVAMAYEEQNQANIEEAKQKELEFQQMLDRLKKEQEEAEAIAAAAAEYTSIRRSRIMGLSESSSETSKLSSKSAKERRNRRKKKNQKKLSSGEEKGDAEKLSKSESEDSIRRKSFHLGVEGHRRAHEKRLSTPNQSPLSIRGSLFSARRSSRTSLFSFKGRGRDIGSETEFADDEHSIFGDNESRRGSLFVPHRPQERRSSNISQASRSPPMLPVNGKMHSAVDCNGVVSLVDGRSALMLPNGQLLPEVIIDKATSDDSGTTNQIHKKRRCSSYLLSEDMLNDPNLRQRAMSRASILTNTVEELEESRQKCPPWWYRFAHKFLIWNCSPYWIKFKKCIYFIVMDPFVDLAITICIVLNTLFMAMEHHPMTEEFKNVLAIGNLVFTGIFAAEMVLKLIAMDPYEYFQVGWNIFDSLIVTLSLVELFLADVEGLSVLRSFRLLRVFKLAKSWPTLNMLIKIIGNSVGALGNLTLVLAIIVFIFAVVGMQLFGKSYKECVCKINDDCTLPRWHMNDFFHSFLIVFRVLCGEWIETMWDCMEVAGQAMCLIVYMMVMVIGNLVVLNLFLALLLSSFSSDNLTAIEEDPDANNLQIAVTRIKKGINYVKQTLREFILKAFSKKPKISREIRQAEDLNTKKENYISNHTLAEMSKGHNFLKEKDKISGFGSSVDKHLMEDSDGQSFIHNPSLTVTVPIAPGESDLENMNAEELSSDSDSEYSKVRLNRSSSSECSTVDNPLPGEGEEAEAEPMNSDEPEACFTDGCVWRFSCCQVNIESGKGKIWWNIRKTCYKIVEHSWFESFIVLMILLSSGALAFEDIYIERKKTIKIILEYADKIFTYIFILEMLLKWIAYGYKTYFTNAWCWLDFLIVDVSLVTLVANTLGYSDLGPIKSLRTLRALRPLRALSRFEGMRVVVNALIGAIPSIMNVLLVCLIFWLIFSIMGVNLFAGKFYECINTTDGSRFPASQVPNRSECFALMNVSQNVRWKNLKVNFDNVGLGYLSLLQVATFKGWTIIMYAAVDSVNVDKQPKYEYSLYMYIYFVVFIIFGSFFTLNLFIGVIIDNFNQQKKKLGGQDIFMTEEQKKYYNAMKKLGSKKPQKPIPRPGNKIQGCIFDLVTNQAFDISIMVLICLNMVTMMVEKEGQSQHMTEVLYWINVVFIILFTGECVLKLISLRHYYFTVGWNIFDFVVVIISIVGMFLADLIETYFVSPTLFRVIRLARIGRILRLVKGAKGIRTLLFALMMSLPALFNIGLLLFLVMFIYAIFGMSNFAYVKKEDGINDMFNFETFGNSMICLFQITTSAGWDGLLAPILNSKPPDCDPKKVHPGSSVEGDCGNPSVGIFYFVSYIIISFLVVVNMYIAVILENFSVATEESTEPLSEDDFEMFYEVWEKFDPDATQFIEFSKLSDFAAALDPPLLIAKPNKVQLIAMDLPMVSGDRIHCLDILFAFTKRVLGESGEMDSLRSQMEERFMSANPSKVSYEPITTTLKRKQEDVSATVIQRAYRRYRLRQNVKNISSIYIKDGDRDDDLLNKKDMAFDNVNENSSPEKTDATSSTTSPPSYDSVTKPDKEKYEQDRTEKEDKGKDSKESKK

**Q.** For N#Cc1cc(S(=O)(=O)Nc2nccs2)ccc1Oc1ccc(F)cc1-c1ccc(CO)cc1 [Example 162, 3-cyano-4-{[5-fluoro-4′-(hydroxymethyl)biphenyl-2-yl]oxy}-N-1,3-thiazol-2-ylbenzenesulfonamide], which IC50 is on record?
**A.** Its IC50 is 420 nM.

**Q.** For CC(C)Oc1cccc(-c2cc(F)ccc2Oc2ccc(S(=O)(=O)Nc3ncns3)cc2C#N)c1 [Example 5, 3-cyano-4-[(5-fluoro-3′-isopropoxybiphenyl-2-yl)oxy]-N-1,2,4-thiadiazol-5-ylbenzenesulfonamide], which IC50 is on record?
**A.** The IC50 was 70 nM.

**Q.** With Cn1nccc1-c1cc(Cl)ccc1Oc1ccc(S(=O)(=O)Nc2nccs2)cc1C#N [Example 170, 4-[4-Chloro-2-(1-methyl-1H-pyrazol-5-yl)phenoxy]-3-cyano-N-1,3-thiazol-2-ylbenzenesulfonamide] as the molecule, how does the IC50 read?
**A.** Its IC50 is 10 nM.

**Q.** Which IC50 does the source give for COc1nsc(NS(=O)(=O)c2ccc(Oc3ccccc3-c3ccccc3)c(C#N)c2)n1 [Example 96, 4-(biphenyl-2-yloxy)-3-cyano-N-(3-methoxy-1,2,4-thiadiazol-5-yl)benzenesulfonamide] here?
**A.** The IC50 was 12500 nM.

**Q.** O=S(=O)(Nc1ncns1)c1ccc(Oc2ccccc2-c2ccccc2)cc1C(F)(F)F [Example 260, 4-(biphenyl-2-yloxy)-N-1,2,4-thiadiazol-5-yl-2-(trifluoromethyl)benzenesulfonamide] was tested. Which IC50 did it give?
**A.** Its IC50 is 15900 nM.

**Q.** With O=S(=O)(Nc1ncns1)c1ccc(Oc2cc(C(F)(F)F)nn2-c2cc(F)ccc2F)c(F)c1 [Example 253, 4-[2-(2,5-difluoro-phenyl)-5-trifluoromethyl-2H-pyrazol-3-yloxy]-3-fluoro-N-1,2,4-thiadiazol-5-yl-benzenesulfonamide] as the molecule, how does the IC50 read?
**A.** Its IC50 is 630 nM.

**Q.** For O=S(=O)(Nc1ncns1)c1cc(Cl)c(Oc2ccccc2-c2ccccc2)cc1F [Example 270, 4-(biphenyl-2-yloxy)-5-chloro-2-fluoro-N-1,2,4-thiadiazol-5-ylbenzenesulfonamide], which IC50 is on record?
**A.** Its IC50 is 30 nM.

**Q.** With O=S(=O)(Nc1ncns1)c1cc(F)c(Oc2ccccc2-c2ccccc2)cc1Cl [Example 267, 4-(biphenyl-2-yloxy)-2-chloro-5-fluoro-N-1,2,4-thiadiazol-5-ylbenzenesulfonamide] as the molecule, how does the IC50 read?
**A.** The IC50 was 190 nM.

**Q.** How did the IC50 turn out when N#Cc1cc(S(=O)(=O)Nc2ncc(Cl)s2)ccc1Oc1ccccc1OCc1ccccc1 [Example 136, 4-[2-(benzyloxy)phenoxy]-N-(5-chloro-1,3-thiazol-2-yl)-3-cyanobenzenesulfonamide] was run?
**A.** The IC50 was 2700 nM.

same assay, conditions: estimated IC50; hSCN9A HEK cells, PatchXpress platform; Examples 283-814

**Q.** For N#Cc1cc(S(=O)(=O)Nc2cscn2)ccc1Oc1ccc(Cl)cc1-c1ccnn1C(F)(F)F [Example 399, 4-{4-chloro-2-[1-(trifluoromethyl)-1H-pyrazol-5-yl]phenoxy}-3-cyano-N-1,3-thiazol-4-ylbenzenesulfonamide], which IC50 is on record?
**A.** Its IC50 is 1200 nM.

**Q.** N#Cc1cc(S(=O)(=O)Nc2nccs2)ccc1Oc1ccc(Cl)cc1-c1cncnc1 [Example 701, 4-(4-chloro-2-pyrimidin-5-ylphenoxy)-3-cyano-N-1,3-thiazol-2-ylbenzenesulfonamide] was tested. Which IC50 did it give?
**A.** The IC50 was 300 nM.

**Q.** CC(C)(C)NC(=O)c1cnn(-c2ccc(Oc3ccc(S(=O)(=O)Nc4nccs4)cc3C#N)cc2)c1 [Example 378, N-tert-butyl-1-(4-{2-cyano-4-[(1,3-thiazol-2-ylamino)sulfonyl]phenoxy}phenyl)-1H-pyrazole-4-carboxamide] was tested. Which IC50 did it give?
**A.** The IC50 was >1000 nM.

**Q.** COc1cc(-c2ccccc2Oc2ccc(S(=O)(=O)Nc3nccs3)cc2C#N)ccc1C#N [Example 703] was tested. Which IC50 did it give?
**A.** The IC50 was 190 nM.

**Q.** O=S(=O)(Nc1ncns1)c1cc(F)c(Oc2ccc(C(F)(F)F)cc2-c2cn[nH]c2)cc1F [Example 790, 2,5-difluoro-4-[2-(1H-pyrazol-4-yl)-4-(trifluoromethyl)phenoxy]-N-1,2,4-thiadiazol-5-ylbenzenesulfonamide] was tested. Which IC50 did it give?
**A.** The IC50 was 1.2 nM.

**Q.** Which IC50 does the source give for CC(=O)c1cccc(-c2cc(Cl)ccc2Oc2ccc(S(=O)(=O)Nc3ncns3)cc2C#N)c1 [Example 504, 4-[(3′-acetyl-5-chlorobiphenyl-2-yl)oxy]-3-cyano-N-1,2,4-thiadiazol-5-ylbenzenesulfonamide] here?
**A.** The IC50 was 4.9 nM.

**Q.** For N#Cc1cc(S(=O)(=O)Nc2nccs2)ccc1Oc1ccc(Cl)cc1-c1cnn[nH]1 [Example 694, 4-[4-chloro-2-(1H-1,2,3-triazol-5-yl)phenoxy]-3-cyano-N-1,3-thiazol-2-ylbenzenesulfonamide], which IC50 is on record?
**A.** Its IC50 is 480 nM.

**Q.** With Cn1nccc1-c1cc(Cl)ccc1Oc1ccc(S(=O)(=O)Nc2ccncn2)cc1C#N [Example 361, 4-[4-chloro-2-(1-methyl-1H-pyrazol-5-yl)phenoxy]-3-cyano-N-pyrimidin-4-ylbenzenesulfonamide] as the molecule, how does the IC50 read?
**A.** Its IC50 is 480 nM.

**Q.** Nc1nccc(-c2cc(F)ccc2Oc2cc(F)c(S(=O)(=O)Nc3ncc(Cl)s3)cc2F)n1 [Example 622, 4-[2-(2-aminopyrimidin-4-yl)-4-fluorophenoxy]-N-(5-chloro-1,3-thiazol-2-yl)-2,5-difluorobenzenesulfonamide] was tested. Which IC50 did it give?
**A.** The IC50 was >1000 nM.

**Q.** Cn1nccc1-c1cc(F)ccc1Oc1cc(F)c(S(=O)(=O)Nc2ccncn2)cc1Cl [Example 295, 5-chloro-2-fluoro-4-[4-fluoro-2-(1-methyl-1H-pyrazol-5-yl)phenoxy]-N-pyrimidin-4-ylbenzenesulfonamide] was tested. Which IC50 did it give?
**A.** Its IC50 is 130 nM.

**Q.** For N#Cc1cc(S(=O)(=O)Nc2nccs2)ccc1Oc1ccc(-n2ccc(C(F)(F)F)n2)c(Cl)c1 [Example 380, 4-{3-chloro-4-[3-(trifluoromethyl)-1H-pyrazol-1-yl]phenoxy}-3-cyano-N-1,3-thiazol-2-ylbenzenesulfonamide], which IC50 is on record?
**A.** The IC50 was 200 nM.

**Q.** With Nc1cc(-c2cc(F)ccc2Oc2cc(F)c(S(=O)(=O)Nc3ncns3)cc2F)ccn1 [Example 634, 4-[2-(2-aminopyridin-4-yl)-4-fluorophenoxy]-2,5-difluoro-N-1,2,4-thiadiazol-5-ylbenzenesulfonamide] as the molecule, how does the IC50 read?
**A.** The IC50 was 11 nM.

**Q.** With Nc1[nH]ncc1-c1cc(Cl)ccc1Oc1cc(F)c(S(=O)(=O)Nc2ncc(Cl)s2)cc1F [Example 467, 4-[2-(5-amino-1H-pyrazol-4-yl)-4-chlorophenoxy]-N-(5-chloro-1,3-thiazol-2-yl)-2,5-difluorobenzenesulfonamide] as the molecule, how does the IC50 read?
**A.** The IC50 was 9.6 nM.

**Q.** With CCn1nc(C(F)(F)F)cc1-c1ccc(Oc2ccc(S(=O)(=O)Nc3nccs3)cc2C#N)cc1F [Example 327, 3-cyano-4-{4-[1-ethyl-3-(trifluoromethyl)-1H-pyrazol-5-yl]-3-fluorophenoxy}-N-1,3-thiazol-2-ylbenzenesulfonamide] as the molecule, how does the IC50 read?
**A.** The IC50 was 370 nM.

**Q.** With N#Cc1cc(S(=O)(=O)Nc2nccs2)ccc1Oc1ccc(-n2cccn2)cc1 [Example 469, 3-cyano-4-[4-(1H-pyrazol-1-yl)phenoxy]-N-1,3-thiazol-2-ylbenzenesulfonamide] as the molecule, how does the IC50 read?
**A.** Its IC50 is 3300 nM.

**Q.** With O=S(=O)(Nc1nccs1)c1ccc(Oc2ccc(F)cc2-c2cn[nH]c2)c(F)c1 [Example 686, 3-fluoro-4-[4-fluoro-2-(1H-pyrazol-4-yl)phenoxy]-N-1,3-thiazol-2-ylbenzenesulfonamide] as the molecule, how does the IC50 read?
**A.** The IC50 was 330 nM.

**Q.** O=S(=O)(Nc1cscn1)c1cc(F)c(Oc2ccc(Cl)cc2-c2cn[nH]c2)cc1F [Example 605, 4-[4-chloro-2-(1H-pyrazol-4-yl)phenoxy]-2,5-difluoro-N-1,3-thiazol-4-ylbenzenesulfonamide] was tested. Which IC50 did it give?
**A.** The IC50 was 100 nM.

same assay, conditions: estimated IC50; hSCN9A HEK cells, PatchXpress platform; Examples 815-1040

**Q.** How did the IC50 turn out when CN1CC(n2nccc2-c2cc(Cl)ccc2Oc2cc(F)c(S(=O)(=O)Nc3nncs3)cc2Cl)C1 [Example 884, 5-chloro-4-{4-chloro-2-[1-(1-methylazetidin-3-yl)-1H-pyrazol-5-yl]phenoxy}-2-fluoro-N-1,3,4-thiadiazol-2-ylbenzenesulfonamide] was run?
**A.** Its IC50 is 36 nM.

**Q.** Which IC50 does the source give for N#Cc1cc(S(=O)(=O)Nc2ncns2)ccc1Oc1ccc(Cl)cc1-c1cccc(CN2CCC2)c1 [Example 852, 4-{[3′-(azetidin-1-ylmethyl)-5-chlorobiphenyl-2-yl]oxy}-3-cyano-N-1,2,4-thiadiazol-5-ylbenzenesulfonamide] here?
**A.** The IC50 was 1.6 nM.

**Q.** Which IC50 does the source give for Cn1ccc(NS(=O)(=O)c2ccc(Oc3ccc(Cl)cc3-c3ccnn3C)c(C#N)c2)n1 [Example 887, 4-[4-chloro-2-(1-methyl-1H-pyrazol-5-yl)phenoxy]-3-cyano-N-(1-methyl-1H-pyrazol-3-yl)benzenesulfonamide] here?
**A.** Its IC50 is 9000 nM.

**Q.** For O=S(=O)(Nc1nncs1)c1ccc(Oc2ccc(Cl)cc2-c2ccnnc2)c(C(F)(F)F)c1 [Example 1018, 4-(4-chloro-2-pyridazin-4-ylphenoxy)-N-1,3,4-thiadiazol-2-yl-3-(trifluoromethyl)benzenesulfonamide], which IC50 is on record?
**A.** The IC50 was 230 nM.

**Q.** How did the IC50 turn out when N#Cc1cc(S(=O)(=O)Nc2ncns2)ccc1Oc1ccc(C(F)(F)F)cc1-c1ccnn1C1CNC1 [Example 935, 4-[2-(1-azetidin-3-yl-1H-pyrazol-5-yl)-4-(trifluoromethyl)phenoxy]-3-cyano-N-1,2,4-thiadiazol-5-ylbenzenesulfonamide] was run?
**A.** The IC50 was 3.8 nM.

**Q.** Which IC50 does the source give for Cn1nccc1NS(=O)(=O)c1ccc(Oc2ccc(Cl)cc2-c2ccnn2C)c(C#N)c1 [Example 894, 4-[4-chloro-2-(1-methyl-1H-pyrazol-5-yl)phenoxy]-3-cyano-N-(1-methyl-1H-pyrazol-5-yl)benzenesulfonamide] here?
**A.** Its IC50 is >10000 nM.

**Q.** Nc1cc(-c2cc(F)ccc2Oc2cc(F)c(S(=O)(=O)Nc3ncccn3)cc2Cl)ccn1 [Example 949, 4-[2-(2-aminopyridin-4-yl)-4-fluorophenoxy]-5-chloro-2-fluoro-N-pyrimidin-2-ylbenzenesulfonamide] was tested. Which IC50 did it give?
**A.** Its IC50 is 87 nM.

**Q.** With N#Cc1cc(S(=O)(=O)Nc2ncc(Cl)s2)ccc1Oc1ccc(F)cc1-c1cccc(N)n1 [Example 991, 4-[2-(6-aminopyridin-2-yl)-4-fluorophenoxy]-N-(5-chloro-1,3-thiazol-2-yl)-3-cyanobenzenesulfonamide] as the molecule, how does the IC50 read?
**A.** The IC50 was >10 nM.

**Q.** N#Cc1cc(S(=O)(=O)Nc2nncs2)ccc1Oc1ccc(Cl)cc1-c1ccnc(N2CCNCC2)c1 [Example 835, 4-[4-chloro-2-(2-piperazin-1-ylpyridin-4-yl)phenoxy]-3-cyano-N-1,3,4-thiadiazol-2-ylbenzenesulfonamide] was tested. Which IC50 did it give?
**A.** Its IC50 is 2.1 nM.

**Q.** For COCCn1ccc(-c2cc(Cl)ccc2Oc2cc(F)c(S(=O)(=O)Nc3nncs3)cc2Cl)n1 [Example 819, 5-chloro-4-{4-chloro-2-[1-(2-methoxyethyl)-1H-pyrazol-3-yl]phenoxy}-2-fluoro-N-1,3,4-thiadiazol-2-ylbenzenesulfonamide], which IC50 is on record?
**A.** Its IC50 is 2400 nM.
